The values that follow come from patent publication US5633248A, “Amine compounds, their production and use” (priority 1994, dated 1997).

Molecules are shown by their SMILES. Where a name gives a salt, the structure may show the parent alone.

Assay [1] addresses T1, Rat GnRH Receptor (Rattus norvegicus, UniProt P30969).
T1 construct: from tissue; host or cells: anterior pituitary of male Wistar rats (8 weeks old), membrane fraction
T1 sequence (P30969 1-327): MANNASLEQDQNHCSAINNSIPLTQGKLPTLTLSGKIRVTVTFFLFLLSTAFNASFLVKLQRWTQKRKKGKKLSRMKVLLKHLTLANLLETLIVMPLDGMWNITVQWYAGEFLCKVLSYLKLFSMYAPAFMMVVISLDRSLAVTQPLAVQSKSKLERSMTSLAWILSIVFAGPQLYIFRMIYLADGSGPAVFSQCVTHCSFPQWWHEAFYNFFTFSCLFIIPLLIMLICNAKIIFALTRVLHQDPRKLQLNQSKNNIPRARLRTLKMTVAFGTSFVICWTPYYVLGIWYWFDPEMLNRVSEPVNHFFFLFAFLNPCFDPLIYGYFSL
In words: ^125 I-leuprolerin binding inhibition, rat anterior pituitary membrane fraction. Conditions: 4° C. for 90 minutes, read-out: GnRH-receptor binding inhibitory activity (IC50, μM) Rat. Further details: species or system rat (Wistar). The procedure:
A tube was filled with 10 μl of an aqueous solution of leuprolerin (3×10^4 M) and lactoperoxidase (0.01 mg/ml) followed by addition of 10 μl of Na^125 I solution (37 MBq). After stirring, 10 μl of 0.001% H2 O2 was added and the reaction was conducted at room temperature for 20 minutes. The reaction was stopped by adding 700 μl of 0.05% TFA and the reaction mixture was subjected to reversed-phase HPLC under the conditions set forth below. ^125 I-leuprolerin was eluted with a retention time of 26-27 minutes. Forty rats (8 weeks old, male) of Wistar strain were decapitated under no anesthesia and the anterior pituitary isolated from each animal was washed with an ice-cooled homogenate buffer (25 mM Tris (tris(hydroxylmethyl)aminomethane)-HCl, 0.3M sucrose, 1 mM EGTA (ethylene-bis(oxyethylenenitrilo)tetraacetic acid), 0.25 mM PMSF (phenylmethylsulfonyl fluoride), 10 U/ml aprotinin, 1 μg/ml pepstatin, 20 μg/ml leupeptin, 100 μg/ml phosphoramidon, 0.03% sodium azide; pH 7.5). The anterior pituitary was suspended in 2 ml of the same homogenate buffer as above and homogenized using a Polytron homogenizer. The homogenate thus prepared was centrifuged at 700 xg for 15 minutes and the supernatant was transferred to an ultracentrifuge cuvette and further centrifuged at 100,000 xg for 1 hour to provide a membrane fraction pellet. This pellet was suspended in 2 ml of an assay buffer (25 mM Tris-HCl, 1 mM ethylenediaminetetraacetic acid (EDTA), 0.1% bovine serum albumin (BSA), 0.25 mM PMSF, 1 μg/ml pepstatin, 20 μg/ml leupeptin, 100 μg/ml phosphoramidon, 0.03% sodium azide; pH 7.5) and centrifuged at 100,000 xg for 1 hour. The membrane fraction recovered as a pellet was resuspended in 10 ml of the same assay buffer as above, distributed into vials, preserved at -80° C., and reconstituted before use. The rat and human membrane fractions prepared under (B) and (D) were respectively diluted with the assay buffer to make 200 μg/ml each and 188 μl aliquots of each dilution were distributed into tubes. The bovine membrane fraction prepared under (C) was diluted with the assay buffer to make 750 μg/ml and 188 μl aliquots of the dilution were distributed into tubes. When the rat anterior pituitary membrane fraction was used, 2 μl of 0.1 mM compound/60% dimethyl sulfoxide (DMSO) and 10 μl of 38 nM ^125 I-leuprolerin were concurrently added. […] For determination of maximum binding, a reaction mixture was prepared by adding 2 μl of 60% DMSO and 10 μl of 38 nM ^125 I-leuprolerin. For determination of non-specific binding, a reaction mixture was prepared using 2 μl of 100 μM leuprolerin/60% DMSO and 10 μl of […] ^125 I-leuprolerin. When the rat and bovine anterior pituitary membrane fractions were used, each reaction was carried out at 4° C. for 90 minutes. On the other hand, when the human GnRH receptor-expressed CHO cell membrane fraction was used, the reaction was conducted at 25° C. for 60 minutes. After completion of the reaction, the reaction mixture was suction-filtered through a polyethyleneimine-treated Whatman glass filter (GF-F) [trademark;whatman]. After filtration, the radioactivity of the residual ^125 I-leuprolerin on the filter was measured using a γ-counter. The computation formula of (TB-SB)/(TB-NSB)×100 (SB=radioactivity bound in the presence of the test compound, TB=maximum amount of radioactivity bound, NSB=amount of radioactivity nonspecifically bound) was calculated to find the binding inhibition rate for the test compound. Moreover, the inhibition rate was determined by varying the concentration of each test compound and the concentration of the compound causing 50% inhibition of binding (IC50 value) was calculated by Hill plot.

Assay [2] addresses T2, Human GnRH receptor (Homo sapiens, UniProt P30968).
T2 construct: expressed in transfected cells; host or cells: CHO (Chinese hamster ovary) cells, membrane fraction
T2 sequence (P30968 1-328): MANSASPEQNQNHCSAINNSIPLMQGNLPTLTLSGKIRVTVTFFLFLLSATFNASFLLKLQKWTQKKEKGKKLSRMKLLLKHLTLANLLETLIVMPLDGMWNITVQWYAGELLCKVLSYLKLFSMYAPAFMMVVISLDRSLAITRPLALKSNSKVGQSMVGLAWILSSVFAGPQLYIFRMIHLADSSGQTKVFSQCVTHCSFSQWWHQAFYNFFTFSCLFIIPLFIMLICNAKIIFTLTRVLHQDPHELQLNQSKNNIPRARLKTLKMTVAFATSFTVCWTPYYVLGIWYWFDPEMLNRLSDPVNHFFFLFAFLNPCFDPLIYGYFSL
Description: ^125 I-leuprolerin binding inhibition, human GnRH receptor-expressed CHO cell membrane fraction. Particulars: 25° C. for 60 minutes, read-out: GnRH-receptor binding inhibitory activity (IC50, μM) Man. On the procedure:
A tube was filled with 10 μl of an aqueous solution of leuprolerin (3×10^4 M) and lactoperoxidase (0.01 mg/ml) followed by addition of 10 μl of Na^125 I solution (37 MBq). After stirring, 10 μl of 0.001% H2 O2 was added and the reaction was conducted at room temperature for 20 minutes. The reaction was stopped by adding 700 μl of 0.05% TFA and the reaction mixture was subjected to reversed-phase HPLC under the conditions set forth below. ^125 I-leuprolerin was eluted with a retention time of 26-27 minutes. […] To the sediment was added 10 ml of a cell homogenate buffer (10 mM NaHCO3, 5 mM EDTA, pH 7.5) and the mixture was homogenized using a Polytron homogenizer. The homogenate was centrifuged at 400 xg for 15 minutes and the supernatant was transferred to an ultracentrifuge cuvette and centrifuged at 100,000 xg for 1 hour to prepare a membrane fraction pellet. This pellet was suspended in 2 ml of the assay buffer and further centrifuged at 100,000 xg for 1 hour. The membrane fraction recovered as a pellet was resuspended in 20 ml of the assay buffer, distributed into vials, preserved at -80° C., and reconstituted before use. The rat and human membrane fractions prepared under (B) and (D) were respectively diluted with the assay buffer to make 200 μg/ml each and 188 μl aliquots of each dilution were distributed into tubes. The bovine membrane fraction prepared under (C) was diluted with the assay buffer to make 750 μg/ml and 188 μl aliquots of the dilution were distributed into tubes. When the rat anterior pituitary membrane fraction was used, 2 μl of 0.1 mM compound/60% dimethyl sulfoxide (DMSO) and 10 μl of 38 nM ^125 I-leuprolerin were concurrently added. […] For determination of maximum binding, a reaction mixture was prepared by adding 2 μl of 60% DMSO and 10 μl of 38 nM ^125 I-leuprolerin. For determination of non-specific binding, a reaction mixture was prepared using 2 μl of 100 μM leuprolerin/60% DMSO and 10 μl of […] ^125 I-leuprolerin. When the rat and bovine anterior pituitary membrane fractions were used, each reaction was carried out at 4° C. for 90 minutes. On the other hand, when the human GnRH receptor-expressed CHO cell membrane fraction was used, the reaction was conducted at 25° C. for 60 minutes. After completion of the reaction, the reaction mixture was suction-filtered through a polyethyleneimine-treated Whatman glass filter (GF-F) [trademark;whatman]. After filtration, the radioactivity of the residual ^125 I-leuprolerin on the filter was measured using a γ-counter. The computation formula of (TB-SB)/(TB-NSB)×100 (SB=radioactivity bound in the presence of the test compound, TB=maximum amount of radioactivity bound, NSB=amount of radioactivity nonspecifically bound) was calculated to find the binding inhibition rate for the test compound. Moreover, the inhibition rate was determined by varying the concentration of each test compound and the concentration of the compound causing 50% inhibition of binding (IC50 value) was calculated by Hill plot.

Take `COc1cc2c(cc1OC)CC(N(CCCC(CCCNC(C)=O)(c1ccccc1)c1ccccc1)Cc1ccccc1)CC2` (stereo not drawn) [II-43, 7-Acetylamino-1-{N-benzyl-N-[2-(6,7-dimethoxy-1,2,3,4-tetrahydronaphthyl)]amino}-4,4-diphenylheptane dihydrochloride]: the IC50 in assay [1] came to 0.2 µM.
Take `COc1cc2c(cc1OC)CC1(CCCCN1CCCC(CCCNC(=O)Cc1ccc([N+](=O)[O-])cc1)(c1ccccc1)c1ccccc1)CC2` (stereo not drawn) [II-53, 3,4-Dihydro-6,7-dimethoxy-1'-{4,4-diphenyl-7-[(4-nitrophenylacetyl)amino]heptyl}spiro[naphthalene-2(1H),2'-piperidine] hydrochloride]: the IC50 in assay [2] amounted to 0.8 µM; in assay [1], 0.01 µM.
On to `COc1ccc(CC(=O)NCCCC(CCCN2CCCCC23CCc2cc(OC)c(OC)cc2C3)(c2ccc(F)cc2)c2ccc(F)cc2)cc1` (stereo not drawn) [II-68, 3,4-Dihydro-6,7-dimethoxy-1'-{4,4-bis(4-fluorophenyl)-7-[(4-methoxyphenylacetyl)amino]heptyl}spiro[naphthalene-2(1H),2'-piperidine] hydrochloride], for which the IC50 in assay [2] was 0.4 µM; in assay [1], 0.009 µM.
Consider `COc1ccc(CC(=O)NCCCC(CCCN2CCCCC23CCc2cc(OC)c(OC)cc2C3)(c2ccccc2)c2ccccc2)cc1OC` (stereo not drawn) [II-59, 3,4-Dihydro-6,7-dimethoxy-1'-{7-[(3,4-dimethoxyphenylacetyl)amino]-4,4-diphenylheptyl}spiro[naphthalene-2(1H),2'-piperidine] hydrochloride], for which the IC50 in assay [2] is 0.4 µM; in assay [1], 0.02 µM.
For `COc1cc2c(cc1OC)CC1(CCCCN1CCCC(CCCNC(=O)Cc1ccc3c(c1)OCO3)(c1ccccc1)c1ccccc1)CC2` (stereo not drawn) [II-60, 3,4-Dihydro-6,7-dimethoxy-1'-{4,4-diphenyl-7-[(3,4-methylenedioxyphenylacetyl)amino]heptyl}spiro[naphthalene-2(1H),2'-piperidine] hydrochloride] the same measures were 0.1 µM and 0.002 µM.
Consider `COc1cc2c(cc1OC)CC1(CCCCN1CCCC(CCCNC(=O)Cc1ccsc1)(c1ccccc1)c1ccccc1)CC2` (stereo not drawn) [II-63, 3,4-Dihydro-6,7-dimethoxy-1'-{4,4-diphenyl-7-[(3-thienylacetyl)amino]heptyl}spiro[naphthalene-2(1H),2'-piperidine] hydrochloride], for which the IC50 in assay [2] is 0.4 µM; in assay [1] it was 0.001 µM.
With `COc1cc2c(cc1OC)CC1(CCCCN1CCCC(CCCNC(C)=O)(c1ccccc1)c1ccccc1)CC2` (stereo not drawn) [II-46, 1'-(7-Acetylamino-4,4-diphenylheptyl)-3,4-dihydro-6,7-dimethoxyspiro[naphthalene-2(1H),2'-piperidine] dihydrochloride], in assay [1], the IC50 came to 0.003 µM.
For `COc1ccc(CCC(=O)NCCCC(CCCN2CCCCC23CCc2cc(OC)c(OC)cc2C3)(c2ccccc2)c2ccccc2)cc1` (stereo not drawn) [II-65, 3,4-Dihydro-6,7-dimethoxy-1'-{4,4-diphenyl-7-{[3-(4-methoxyphenyl)propionyl]amino}heptyl}spiro[naphthalene-2(1H),2'-piperidine] hydrochloride], the half-inhibitory concentration (IC50) in assay [2] is 0.02 µM; in assay [1], 0.001 µM.
On to `COc1cc2c(cc1OC)CC1(CCCCN1CCCC(CCCNC(=O)COc1ccccc1)(c1ccccc1)c1ccccc1)CC2` (stereo not drawn) [II-61, 3,4-Dihydro-6,7-dimethoxy-1'-{4,4-diphenyl-7-[(phenoxyacetyl)amino]heptyl}spiro[naphthalene-2(1H),2'-piperidine] hydrochloride], for which the IC50 in assay [1] was found to be 0.01 µM.
For `COc1ccc2c(c1)CCC1(CCCCN1CCCC(CCNC(C)=O)(c1ccccc1)c1ccccc1)C2` (stereo not drawn) [II-37, 3,4-Dihydro-6-methoxy-1'-(6-acetylamino-4,4-diphenylhexyl)spiro[naphthalene-2(1H),2'-piperidine] dihydrochloride], the half-inhibitory concentration (IC50) in assay [1] amounted to 0.3 µM.
Still for that read-out and setting: with `COc1ccc2c(c1)CCC1(CCCCN1CCCC(CCCNC(C)=O)(c1ccccc1)c1ccccc1)C2` (stereo not drawn) [II-45, 1'-(7-Acetylamino-4,4-diphenylheptyl)-3,4-dihydro-6-methoxyspiro[naphthalene-2(1H),2'-piperidine] dihydrochloride] the figure was 0.08 µM; with `COc1cccc2c1CC1(CCCCN1CCCC(CCCNC(C)=O)(c1ccccc1)c1ccccc1)CC2` (stereo not drawn) [II-44, 1'-(7-Acetylamino-4,4-diphenylheptyl)-3,4-dihydro-8-methoxyspiro[naphthalene-2(1H),2'-piperidine] dihydrochloride], 0.4 µM.

As usually defined, the IC50 is the point on the concentration scale where inhibition reaches its midpoint.
